# Reference: patent publication US11337423B1, “Candida auris disinfectant” (priority 2021, dated 2022)
# Tests used:
# Experiment in all cases: zone of inhibition in vitro test
# Format in all cases: cell-based
# [1] = test system: Escerichia coli ATCC 43895
# [2] = test system: Escherichia coli ATCC 8739
# [3] = test system: Salmonella enterica ATCC 14028
# [4] = test system: Pseudomonas aeruqinosa ATCC 9-27
# [5] = test system: Methicillin Resistant Staphylococcus aureus ATCC 33591
# [6] = test system: Klebsiella pneumoniae ATCC 4352
# [7] = test system: Staphylococcus aureus ATCC 6538
# [8] = test system: Candida albicans ATCC 10231
# [9] = test system: Staphyloccus epidermidis ATCC 12228
# [10] = test system: Lactobacillus casei ATCC 393
# MRSE ATCC 51625 = test system: MRSE ATCC 51625
# [11] = test system: Propionibacterium acnes ATCC 6919
# Escherichia coli 0157:H7 = test system: Escherichia coli 0157:H7
# [12] = test system: Clostridium perfrinqens ATCC 13124
# Candida auris CDC B11903 = test system: Candida auris CDC B11903
# [13] = Candida auris CDC 811903, Table 2
smiles,measurement,setting,value
"O=C(O)c1ccc(O)c(O)c1 [Protocatechuic acid, reference compound]",Average (mm),[1],13 mm
same,RESULTS (mm) Plate 1,[1],14 mm
same,RESULTS (mm) Plate 2,[1],12 mm
same,Average (mm),[2],14 mm
same,RESULTS (mm) Plate 1,[2],14 mm
same,RESULTS (mm) Plate 2,[2],14 mm
same,Average (mm),[3],14 mm
same,RESULTS (mm) Plate 1,[3],15 mm
same,RESULTS (mm) Plate 2,[3],13 mm
same,Average (mm),[4],13 mm
same,RESULTS (mm) Plate 1,[4],13 mm
same,RESULTS (mm) Plate 2,[4],13 mm
same,Average (mm),[5],21 mm
same,RESULTS (mm) Plate 1,[5],21 mm
same,RESULTS (mm) Plate 2,[5],21 mm
same,Average (mm),[6],14.5 mm
same,RESULTS (mm) Plate 1,[6],16 mm
same,RESULTS (mm) Plate 2,[6],13 mm
same,Average (mm),[7],18 mm
same,RESULTS (mm) Plate 1,[7],18 mm
same,RESULTS (mm) Plate 2,[7],18 mm
same,Average (mm),[8],18 mm
same,RESULTS (mm) Plate 1,[8],21 mm
same,RESULTS (mm) Plate 2,[8],15 mm
same,Average (mm),[9],27 mm
same,RESULTS (mm) Plate 1,[9],26 mm
same,RESULTS (mm) Plate 2,[9],28 mm
same,Average (mm),[10],21 mm
same,RESULTS (mm) Plate 1,[10],18 mm
same,RESULTS (mm) Plate 2,[10],24 mm
same,Average (mm),MRSE ATCC 51625,18 mm
same,RESULTS (mm) Plate 1,MRSE ATCC 51625,15 mm
same,RESULTS (mm) Plate 2,MRSE ATCC 51625,20 mm
same,Average (mm),[11],21 mm
same,RESULTS (mm) Plate 1,[11],23 mm
same,RESULTS (mm) Plate 2,[11],19 mm
same,Average (mm),Escherichia coli 0157:H7,15.5 mm
same,RESULTS (mm) Plate 1,Escherichia coli 0157:H7,17 mm
same,RESULTS (mm) Plate 2,Escherichia coli 0157:H7,14 mm
same,Average (mm),[12],52 mm
same,RESULTS (mm) Plate 1,[12],54 mm
same,RESULTS (mm) Plate 2,[12],50 mm
same,resistance of Candida auris to the chemical,Candida auris CDC B11903; conclusion in words,very resistant
"CCOC(=O)c1ccc(O)c(O)c1 [Ethyl ester of protocatechuic acid, 3,4-Dihydroxybenzoic acid ethyl ester]",Average (mm),[1],27 mm
same,RESULTS (mm) Plate 1,[1],25 mm
same,RESULTS (mm) Plate 2,[1],28 mm
same,Average (mm),[2],23 mm
same,RESULTS (mm) Plate 1,[2],22 mm
same,RESULTS (mm) Plate 2,[2],24 mm
same,Average (mm),[3],28 mm
same,RESULTS (mm) Plate 1,[3],28 mm
same,RESULTS (mm) Plate 2,[3],28 mm
same,Average (mm),[4],11 mm
same,RESULTS (mm) Plate 1,[4],11 mm
same,RESULTS (mm) Plate 2,[4],11 mm
same,Average (mm),[5],26.5 mm
same,RESULTS (mm) Plate 1,[5],28 mm
same,RESULTS (mm) Plate 2,[5],25 mm
same,Average (mm),[6],27 mm
same,RESULTS (mm) Plate 1,[6],28 mm
same,RESULTS (mm) Plate 2,[6],26 mm
same,Average (mm),[7],27 mm
same,RESULTS (mm) Plate 1,[7],26 mm
same,RESULTS (mm) Plate 2,[7],28 mm
same,Average (mm),[8],29.5 mm
same,RESULTS (mm) Plate 1,[8],31 mm
same,RESULTS (mm) Plate 2,[8],28 mm
same,Average (mm),[9],35 mm
same,RESULTS (mm) Plate 1,[9],35 mm
same,RESULTS (mm) Plate 2,[9],35 mm
same,Average (mm),[10],23 mm
same,RESULTS (mm) Plate 1,[10],24 mm
same,RESULTS (mm) Plate 2,[10],22 mm
same,Average (mm),MRSE ATCC 51625,23 mm
same,RESULTS (mm) Plate 1,MRSE ATCC 51625,23 mm
same,RESULTS (mm) Plate 2,MRSE ATCC 51625,22 mm
same,Average (mm),[11],20 mm
same,RESULTS (mm) Plate 1,[11],22 mm
same,RESULTS (mm) Plate 2,[11],18 mm
same,Average (mm),Escherichia coli 0157:H7,27 mm
same,RESULTS (mm) Plate 1,Escherichia coli 0157:H7,26 mm
same,RESULTS (mm) Plate 2,Escherichia coli 0157:H7,28 mm
same,Average (mm),[12],52 mm
same,RESULTS (mm) Plate 1,[12],50 mm
same,RESULTS (mm) Plate 2,[12],54 mm
same,Average (mm),Candida auris CDC B11903; [13],29.5 mm
same,RESULTS (mm) Plate 2,Candida auris CDC B11903; [13],28 mm
same,RESULTS (mm) Plate I,Candida auris CDC B11903; [13],31 mm
same,topical disinfection for Candida auris,Candida auris CDC B11903; conclusion in words from the in vitro test results,excellent agent for topical disinfection
